The test system of data set [1] is MDA-MB-231 (human breast carcinoma). Put plainly: Anti-proliferative activity, Alamar Blue assay, MDA-MB-231. The settings on record: proliferation, 72 hours compound. Format: cell-based. As to the method:
(§1) The method is based on the ability of viable cells to reduce resazurin to its fluorescent product resorufin. For each proliferation assay cells are plated onto 96 well plates and allowed to recover for 16 hours prior to the addition of inhibitor compounds (in 0.1% DMSO v/v) for a further 72 hours.
(§2) The anti-proliferative activities of compounds of the invention can be determined by measuring the ability of the compounds to inhibit growth in 3 cancer cell lines: • EVSA-T (human breast carcinoma) DSMZ cat. no.
Background: The colour change of resazurin is a common sign of viable cells or microbes.

In a further data set the target is T1, hERG ion channel (Homo sapiens, UniProt Q12809).
T1 construct: expressed in transfected cells; host or cells: CHO K1
T1 sequence (Q12809 whole entry): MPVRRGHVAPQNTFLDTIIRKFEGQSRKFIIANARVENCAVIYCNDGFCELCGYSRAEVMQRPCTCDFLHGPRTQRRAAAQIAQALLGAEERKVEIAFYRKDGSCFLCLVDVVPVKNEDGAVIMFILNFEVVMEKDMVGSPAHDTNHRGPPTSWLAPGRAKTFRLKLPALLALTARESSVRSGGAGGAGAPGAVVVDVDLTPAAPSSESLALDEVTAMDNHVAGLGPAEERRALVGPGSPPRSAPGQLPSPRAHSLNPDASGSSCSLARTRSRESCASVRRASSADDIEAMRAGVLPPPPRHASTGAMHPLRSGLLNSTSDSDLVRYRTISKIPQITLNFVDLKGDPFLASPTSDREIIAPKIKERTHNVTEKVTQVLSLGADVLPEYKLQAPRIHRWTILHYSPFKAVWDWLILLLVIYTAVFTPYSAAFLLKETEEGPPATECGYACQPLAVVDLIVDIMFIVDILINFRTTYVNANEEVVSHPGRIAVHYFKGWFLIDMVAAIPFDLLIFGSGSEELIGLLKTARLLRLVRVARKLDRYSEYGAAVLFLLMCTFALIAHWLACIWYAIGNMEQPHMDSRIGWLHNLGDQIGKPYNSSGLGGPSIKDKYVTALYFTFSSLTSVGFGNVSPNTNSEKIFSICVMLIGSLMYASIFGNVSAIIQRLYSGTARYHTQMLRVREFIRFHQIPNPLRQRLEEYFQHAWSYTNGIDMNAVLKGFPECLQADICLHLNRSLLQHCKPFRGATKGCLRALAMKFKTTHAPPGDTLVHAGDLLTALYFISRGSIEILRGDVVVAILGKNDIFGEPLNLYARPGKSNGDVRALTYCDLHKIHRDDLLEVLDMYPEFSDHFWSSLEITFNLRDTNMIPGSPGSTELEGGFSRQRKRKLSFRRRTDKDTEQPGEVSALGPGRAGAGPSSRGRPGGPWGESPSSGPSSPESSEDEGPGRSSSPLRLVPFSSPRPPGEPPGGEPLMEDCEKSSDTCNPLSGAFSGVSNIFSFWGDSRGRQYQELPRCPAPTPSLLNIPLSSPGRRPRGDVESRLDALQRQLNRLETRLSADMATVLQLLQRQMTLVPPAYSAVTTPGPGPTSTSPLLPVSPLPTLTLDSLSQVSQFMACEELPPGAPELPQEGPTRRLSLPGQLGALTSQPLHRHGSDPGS
Kind of data set: Population Patch Clamp (PPC) hERG assay in CHO K1 cells. It counts as cell-based. The procedure: Inhibition of the hERG channel was measured by automated patch clamp assay in CHO K1 cells, stably transfected with the hERG ion channel. PPC measurements were performed using an IonWorks Quattro instrument (Molecular Devices Corporation, Union City, CA) using a 384 well PatchPlate (Molecular Devices Corporation) with 64 apertures per well. Each concentration of test compound was tested in duplicate wells. Amphotericin B was used to obtain electrical access to the cell interior at a final concentration of 200 μg/mL. Human ether-à-gogo related gene (hERG) currents were measured with a prepulse to +40 mV (2 s) from the holding potential of −80 mV, followed by a step to −50 mV (2 s) to elicit the deactivating tail currents, before returning to the holding potential for 1s. Compounds were incubated for 600s between the pre- and post-compound reads. The external recording solution used was 130 mM Na Gluconate, 20 mM NaCl, 4 mM KCl, 1 mM MgCl2, 1.8 mM CaCl2, 10 mM Hepes, 5 mM Glucose, pH to 7.3 with NaOH. All data were filtered for seal quality, seal drop, and current amplitude. The maximum current amplitude of the 3rd pulse tail current was calculated before (Pre) and after (Post) compound addition and the amount of block assessed by dividing the Post-compound current amplitude by the Pre-compound current amplitude.
For orientation: In patch-clamp work, channel activity is measured electrically.

Data set [2] addresses T2, XIAP-Caspase-9 in HEK293-XIAP-Caspase-9 cells (Homo sapiens, UniProt P98170).
T2 construct: FLAG; expressed in transfected cells
Put plainly: HEK293-XIAP-Caspase-9 immunoprecipitation (IP) MSD assay. Format: cell-based. The note with it: compound 2 h at 37° C.; read-out: HEK293-X-C9 IP. The procedure: Stable HEK293-XIAP-Caspase-9 cells were plated out into 96-well plates [200 μl/well at 1×10^6 cells/mL in cultured complete medium (DMEM+10% FBS+0.5 mg/mL Geneticin (Invitrogen)] and left overnight at 37° C. to recover. Compounds were added to duplicate wells in 0.1% DMSO for 2 h at 37° C. Cells were lysed in 50 μl 1×MSD lysis buffer (1% Triton X-100 in 20 mM Tris·Cl (pH 7.6), 150 mM NaCl including protease inhibitors) for 20 min rocking at room temperature. Streptavidin high bind MSD plate (L15SB-2) were coated with biotinylated anti-FLAG M2 antibody (Sigma F9291) at 25 μl/well with a 5 μg/mL dilution of antibody in PBS for 1 h, shaking; followed by blocking for 1 h with 150 μl 3% BSA/TBST. Cell lysate (25 μl) was added to the 96-well anti-FLAG coated MSD plate and placed on shaker for 4 h at room temperature. […] Plates were washed 4 times with 150 μl TBST, and 150 μl/well 1×MSD read buffer (R92TC-2) added before reading each plate.
EC50 values were determined from dose-response plots using nonlinear least-squares analysis.

Data set [3] deals with EVSA-T (human breast carcinoma). Put plainly: Anti-proliferative activity, Alamar Blue assay, EVSA-T. Format: cell-based. The note with it: 72 hours compound, read-out: EVSA-T prolif. The procedure: as §1, §2
Data set [4] concerns SK-MEL-28. Kind of data set: Combination protocol for apoptosis, SK-MEL-28. Format: cell-based, human. As to the method:
(§3) After incubation of the cells with compound(s) with or without 1 ng/ml TNF-α (R&D Systems) for 24 h in a CO2 incubator at 37° C., cells were harvested by trypsinisation. The cell pellet from the 24-well plate was resuspended in 100 μl FACS buffer (PBS+1% fetal bovine serum). NucView488 reagent (from Biotium) was added to a final concentration of 2 μM. The plate was incubated in the dark for 30 minutes before measuring fluorescent stained cells in a Guava easyCyte HT cytometer (Millipore). Cleaved caspase-3 staining was recorded in the FL1 channel, with unstained and DMSO control wells being used to set the gated stained and unstained cell populations.

Data set [5] relates to A375. Put plainly: Combination protocol for apoptosis, A375. It counts as cell-based, human. The note with it: for % Apoptosis Combination / % Apoptosis Example 2 alone*: 24 h. The procedure: as §3, with “Melanoma cell lines were plated out in duplicate wells of 24-well plates at 0.5×10^6 cells/ml the day before treatment to allow them to adhere. After” for “After”
No increase in apoptosis was seen over this time scale with the combination agent shown in the first column of the table alone (with or without TNF-α)—data not shown.

The test system of the next data set is SK-MEL-5. Put plainly: Apoptosis induction (cleaved caspase-3 cytometry), SK-MEL-5. It counts as cell-based, human. The settings on record: 1 μM Example 2 plus 1 ng/ml TNF-α, 24 hour. The procedure: as §3, with “Melanoma cell lines were plated out in duplicate wells of 24-well plates at 0.5×10^6 cells/ml the day before treatment to allow them to adhere. After” for “After”

The next data set has as its system WM-115. Put plainly: Apoptosis induction (cleaved caspase-3 cytometry), WM-115. It counts as cell-based, human. The settings on record: 1 μM Example 2 plus 1 ng/ml TNF-α, 24 hour, dihydrochloride. As to the method: as §3, with “Melanoma cell lines were plated out in duplicate wells of 24-well plates at 0.5×10^6 cells/ml the day before treatment to allow them to adhere. After” for “After”

Another data set deals with MALME-3M. Put plainly: Apoptosis induction (cleaved caspase-3 cytometry), MALME-3M. Format: cell-based, human. The note with it: 1 μM Example 2 plus 1 ng/ml TNF-α, 24 hour. As to the method:
as §3, with “Melanoma cell lines were plated out in duplicate wells of 24-well plates at 0.5×10^6 cells/ml the day before treatment to allow them to adhere. After” for “After”

In data set [6] the test system is A375. Put plainly: Apoptosis induction (cleaved caspase-3 cytometry), A375. It counts as cell-based, human. The note with it: 1 μM Example 2 plus 1 ng/ml TNF-α, 24 hour. As to the method: as §3, with “Melanoma cell lines were plated out in duplicate wells of 24-well plates at 0.5×10^6 cells/ml the day before treatment to allow them to adhere. After” for “After”
Data set [7] has as its system SK-MEL-28. Put plainly: Apoptosis induction (cleaved caspase-3 cytometry), SK-MEL-28. Format: cell-based, human. The settings on record: 1 μM Example 2 plus 1 ng/ml TNF-α, 24 hour. As to the method:
as §3, with “Melanoma cell lines were plated out in duplicate wells of 24-well plates at 0.5×10^6 cells/ml the day before treatment to allow them to adhere. After” for “After”

The subject of another data set is RPMI-7951. Kind of data set: Apoptosis induction (cleaved caspase-3 cytometry), RPMI-7951. Format: cell-based, human. The settings on record: 1 μM Example 2 plus 1 ng/ml TNF-α, 24 hour. The procedure: as §3, with “Melanoma cell lines were plated out in duplicate wells of 24-well plates at 0.5×10^6 cells/ml the day before treatment to allow them to adhere. After” for “After”

In a further data set the test system is SK-MEL-2. Kind of data set: Apoptosis induction (cleaved caspase-3 cytometry), SK-MEL-2. It counts as cell-based, human. The settings on record: 1 μM Example 2 plus 1 ng/ml TNF-α, 24 hour. As to the method: as §3, with “Melanoma cell lines were plated out in duplicate wells of 24-well plates at 0.5×10^6 cells/ml the day before treatment to allow them to adhere. After” for “After”

A further data set relates to WM-266-4. Kind of data set: Apoptosis induction (cleaved caspase-3 cytometry), WM-266-4. It counts as cell-based, human. The note with it: 1 μM Example 2 plus 1 ng/ml TNF-α, 24 hour, dihydrochloride. As to the method:
as §3, with “Melanoma cell lines were plated out in duplicate wells of 24-well plates at 0.5×10^6 cells/ml the day before treatment to allow them to adhere. After” for “After”

“And” between values parts separate entries of the source, which are not always exact repeats. Equal entries are not always repeated. Structures can show the parent of a compound that is named as a salt. Where two headings read alike, the source gives them in different places.

T2 sequence (P98170 whole entry): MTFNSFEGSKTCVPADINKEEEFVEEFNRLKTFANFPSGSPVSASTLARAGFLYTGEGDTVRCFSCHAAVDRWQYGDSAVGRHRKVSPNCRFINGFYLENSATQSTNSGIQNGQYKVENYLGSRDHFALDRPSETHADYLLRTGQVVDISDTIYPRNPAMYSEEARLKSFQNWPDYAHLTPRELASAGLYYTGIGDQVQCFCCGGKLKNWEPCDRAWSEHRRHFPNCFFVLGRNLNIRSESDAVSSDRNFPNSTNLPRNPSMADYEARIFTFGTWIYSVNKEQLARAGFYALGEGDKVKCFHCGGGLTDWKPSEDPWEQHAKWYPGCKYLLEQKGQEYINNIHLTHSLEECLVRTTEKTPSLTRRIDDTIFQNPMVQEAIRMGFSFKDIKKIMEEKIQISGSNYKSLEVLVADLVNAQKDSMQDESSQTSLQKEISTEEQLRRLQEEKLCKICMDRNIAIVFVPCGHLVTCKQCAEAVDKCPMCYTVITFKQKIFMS

On to `CCCCn1cc2c(cc1=O)C(C)(C)CN2C(=O)CN1C[C@@H](C)NC[C@@H]1CN1[C@H](C)COC[C@H]1C` [Example 35, 6-Butyl-1-{2-[(2R,5R)-2-{[(3R,5R)-3,5-dimethylmorpholin-4-yl]methyl}-5-methylpiperazin-1-yl]acetyl}-3,3-dimethyl-1H,2H,3H,5H,6H-pyrrolo[2,3-c]pyridin-5-one dihydrochloride], for which the EC50 in data set [1] (Homo sapiens, MDA-MB-231, 72 h) was determined as 130 nM; in data set [2], 13 nM; in [3] (Homo sapiens, EVSA-T, 72 h) it was 16 nM. Besides, at hERG ion channel (@ 1000 μM), the “hERG PPC (PI)” value was 53% @ 1000.

In the case of `CCCS(=O)(=O)Nc1ccc(F)c(C(=O)c2c[nH]c3ncc(-c4ccc(Cl)cc4)cc23)c1F` [Vemurafenib, reference compound], the “% Apoptosis Combination” value was 87.3% with SK-MEL-28 [4] (agent 1 μM with Example 2 1 μM + 1 ng/ml TNF-α, 24 h) and 61.3% with A375 [5] (agent 4 μM with Example 2 1 μM + 1 ng/ml TNF-α). Further, the “Fold Increase” value with SK-MEL-28 [4] (combination (agent 1 μM) relative to Example 2 1 μM + TNF-α alone) is 1.7; with A375 [5] (combination (agent 4 μM) relative to Example 2 1 μM + TNF-α alone) it was 2.0.

For the compound `COC(CO)c1nc2c(cc1Cc1ccc(F)cc1)N(C(=O)CN1C[C@@H](C)NC[C@@H]1CN1[C@H](C)COC[C@H]1C)CC2(C)C` (single isomer, unassigned) [Example 36, 2-[(2R,5R)-2-{[(3R,5R)-3,5-Dimethylmorpholin-4-yl]methyl}-5-methylpiperazin-1-yl]-1-{6-[(4-fluorophenyl)methyl]-5-((R or S)-2-hydroxy-1-methoxyethyl)-3,3-dimethyl-1H,2H,3H-pyrrolo[3,2-b]pyridin-1-yl}ethan-1-one], the EC50 is 2.5 nM in [1] (Homo sapiens, MDA-MB-231, 72 h); 2.7 nM in data set [1]; 2.6 nM and 4.2 nM in data set [2]; 0.48 nM in data set [3]; 0.38 nM in [3] (Homo sapiens, EVSA-T, 72 h). Further, half-maximal inhibition against hERG ion channel (CHO K1 cells stably transfected with hERG) (IC50) required 420000 nM.

As for `CC(=O)Nc1cccc(-n2c(=O)n(C3CC3)c(=O)c3c(Nc4ccc(I)cc4F)n(C)c(=O)c(C)c32)c1` [Trametinib], the “% Apoptosis Combination” value in the data set with A375 [5] (agent 0.1 μM with Example 2 0.1 μM + 1 ng/ml TNF-α) turned out to be 52.3%. The “Fold Increase” value with A375 [5] (combination (agent 0.1 μM) relative to Example 2 0.1 μM + TNF-α alone) is given as 3.6.

Consider `CCCCc1cc2c([nH]c1=O)C(C)(C)CN2C(=O)CN1C[C@@H](C)NC[C@@H]1CN1C[C@H](C)OC[C@H]1C` [Example 37, 6-Butyl-1-{2-[(2R,5R)-2-{[(2S,5R)-2,5-dimethylmorpholin-4-yl]methyl}-5-methylpiperazin-1-yl]acetyl}-3,3-dimethyl-1H,2H,3H,4H,5H-pyrrolo[3,2-b]pyridin-5-one dihydrochloride], for which the EC50 in [1] (Homo sapiens, MDA-MB-231, 72 h) was 18 nM; in data set [2], 7.4 nM; in data set [3] (Homo sapiens, EVSA-T, 72 h), 3.2 nM. Besides, the “hERG PPC (PI)” value on hERG ion channel (@ 500 μM) is listed as 63% @ 500.

`C[C@@H]1CN(CC(=O)N2CC(C)(C)c3nc(CO)c(Cc4ccc(F)cc4)cc32)[C@@H](CN2CCOC[C@H]2C)CN1` [Example 2, 1-{6-[(4-Fluorophenyl)methyl]-5-(hydroxymethyl)-3,3-dimethyl-1H,2H,3H-pyrrolo[3,2-b]pyridin-1-yl}-2-[(2R,5R)-5-methyl-2-{[(3R)-3-methylmorpholin-4-yl]methyl}piperazin-1-yl] ethan-1-one dihydrochloride]: the “% Apoptosis Example 2 alone*” value is 42.2 (0.1 μM) % in the data set on SK-MEL-28 [4] (Example 2 0.1 μM + 1 ng/ml TNF-α, 24 h); 14.4 (0.1 μM) % in the data set on A375 [5] (Example 2 0.1 μM + 1 ng/ml TNF-α); 31.2 (1 μM) % in the data set on A375 [5] (Example 2 1 μM + 1 ng/ml TNF-α). Besides, the “% Cleaved Caspase-3” value stood at 52.8% with SK-MEL-5; 16.7% in the data set with WM-115; 29.5% with MALME-3M; 26.5% in the data set on A375 [6]; 63.2% in the data set with SK-MEL-28 [7]; 44.0% in the data set with RPMI-7951. Further, the “% Cleaved Caspase-3” value in the data set with SK-MEL-2 is 49.5%; in the data set on WM-266-4, 13.2%.

Values taken from US12202828B2, “Bicyclic heterocycle compounds and their uses in therapy” (ASTEX THERAPEUTICS LIMITED, priority 2013, dated 2025).
